Values after ≈ are worked out from the molar mass of the structure shown.
What was measured:
[1] = test system: Staphylococcus aureus; test: Antibacterial activity against Staphylococcus aureus ATCC 4163 after 18 hrs by microdilution method; assay type: functional; settings: ATCC 4163, 18 h
[2] = test system: Staphylococcus aureus; test: Antibacterial activity against Staphylococcus aureus ATCC 25923 after 18 hrs by microdilution method; assay type: functional; settings: ATCC 25923, 18 h
[3] = test system: Staphylococcus aureus; test: Antibacterial activity against Staphylococcus aureus ATCC 6538 after 18 hrs by microdilution method; assay type: functional; settings: ATCC 6538, 18 h
[4] = test system: Staphylococcus epidermidis; test: Antibacterial activity against Staphylococcus epidermidis ATCC 12228 after 18 hrs by microdilution method; assay type: functional; settings: ATCC 12228, 18 h
[5] = test system: Staphylococcus epidermidis; test: Antibacterial activity against Staphylococcus epidermidis ATCC 49134 after 18 hrs by microdilution method; assay type: functional; settings: ATCC 49134, 18 h
[6] = test system: Staphylococcus aureus; test: Antibacterial activity against methicillin resistant Staphylococcus aureus isolate 1 after 18 hrs by microdilution method; assay type: functional; settings: isolate 1, 18 h
[7] = test system: Staphylococcus aureus; test: Antibacterial activity against methicillin resistant Staphylococcus aureus isolate 4 after 18 hrs by microdilution method; assay type: functional; settings: isolate 4, 18 h
[8] = test system: Staphylococcus aureus; test: Antibacterial activity against methicillin resistant Staphylococcus aureus isolate 5 after 18 hrs by microdilution method; assay type: functional; settings: isolate 5, 18 h
[9] = test system: Escherichia coli; test: Antibacterial activity against Escherichia coli ATCC 25922 after 18 hrs by microdilution method; assay type: functional; settings: ATCC 25922, 18 h
[10] = test system: Pseudomonas aeruginosa; test: Antibacterial activity against Pseudomonas aeruginosa NCTC 6749 after 18 hrs by microdilution method; assay type: functional; settings: NCTC 6749, 18 h
[11] = Solubility in water at pH 7 by UV-vis spectrophotometric analysis; assay type: physicochemical
[12] = Octanol-water partition coefficient, logP of the compound after 1 hr by UV-vis spectrophotometric analysis; assay type: physicochemical
[13] = test system: Staphylococcus aureus; test: Antibacterial activity against methicillin resistant Staphylococcus aureus isolate 2 after 18 hrs by microdilution method; assay type: functional; settings: isolate 2, 18 h
[14] = test system: Staphylococcus aureus; test: Antibacterial activity against methicillin resistant Staphylococcus aureus isolate 3 after 18 hrs by microdilution method; assay type: functional; settings: isolate 3, 18 h

Row | SMILES | MIC [1] [µg/mL] | MIC [2] [µg/mL] | MIC [3] [µg/mL] | MIC [4] [µg/mL] | MIC [5] [µg/mL] | MIC [6] [µg/mL] | MIC [7] [µg/mL] | MIC [8] [µg/mL] | MIC [9] [µg/mL] | MIC [10] [µg/mL] | solubility [11] [µg/mL] | logP at 1 h [12] | MIC [13] [µg/mL] | MIC [14] [µg/mL]
1 | COC(=O)[C@H](Cc1ccccc1)NCc1c2c(O)c3c(O)c(C)c4c(c3c1O)C(=O)[C@@](C)(O/C=C/[C@H](OC)[C@@H](C)[C@@H](OC(C)=O)[C@H](C)[C@H](O)[C@H](C)[C@@H](O)[C@@H](C)/C=C/C=C(/C)C(=O)N2)O4 | 0.063 (≈ 0.0709 µM) | 0.125 (≈ 0.141 µM) | 0.063 (≈ 0.0709 µM) | 0.031 (≈ 0.0349 µM) | 0.031 (≈ 0.0349 µM) | 0.125 (≈ 0.141 µM) | 0.063 (≈ 0.0709 µM) | 0.063 (≈ 0.0709 µM) | > 2 | > 2 | 70 (≈ 78.7 µM) | 2.47 |  | 
2 | CO[C@H]1/C=C/O[C@@]2(C)Oc3c(C)c(O)c4c(O)c(c(CN[C@@H](Cc5ccccc5)C(=O)OC(C)(C)C)c(O)c4c3C2=O)NC(=O)/C(C)=C\C=C\[C@H](C)[C@H](O)[C@@H](C)[C@@H](O)[C@@H](C)[C@H](OC(C)=O)[C@@H]1C | 0.5 (≈ 0.537 µM) | 1 (≈ 1.07 µM) | 0.5 (≈ 0.537 µM) | 0.125 (≈ 0.134 µM) | 0.25 (≈ 0.269 µM) | 0.5 (≈ 0.537 µM) | 0.5 (≈ 0.537 µM) | 0.5 (≈ 0.537 µM) | > 2 | > 2 | 30 (≈ 32.2 µM) | 2.66 |  | 
3 | CO[C@H]1/C=C/O[C@@]2(C)Oc3c(C)c(O)c4c(O)c(c(/C=N/N5CCN(C)CC5)c(O)c4c3C2=O)NC(=O)/C(C)=C\C=C\[C@H](C)[C@H](O)[C@@H](C)[C@@H](O)[C@@H](C)[C@H](OC(C)=O)[C@@H]1C [RIFAMPIN] | 0.008 (≈ 0.00972 µM) | 0.016 (≈ 0.0194 µM) | 0.008 (≈ 0.00972 µM) | 0.004 (≈ 0.00486 µM) | 0.008 (≈ 0.00972 µM) | 0.016 (≈ 0.0194 µM) | 0.016 (≈ 0.0194 µM) | 0.016 (≈ 0.0194 µM) | > 2 | > 2 |  |  | 0.016 (≈ 0.0194 µM) | 0.016 (≈ 0.0194 µM)
4 | COC(=O)[C@H](Cc1ccc(O)cc1)NCc1c2c(O)c3c(O)c(C)c4c(c3c1O)C(=O)[C@@](C)(O/C=C/[C@H](OC)[C@@H](C)[C@@H](OC(C)=O)[C@H](C)[C@H](O)[C@H](C)[C@@H](O)[C@@H](C)/C=C/C=C(/C)C(=O)N2)O4 | 0.5 (≈ 0.552 µM) | 1 (≈ 1.1 µM) | 0.5 (≈ 0.552 µM) | 0.063 (≈ 0.0696 µM) | 0.125 (≈ 0.138 µM) | 0.5 (≈ 0.552 µM) | 0.5 (≈ 0.552 µM) | 0.5 (≈ 0.552 µM) | > 2 | > 2 | 60 (≈ 66.3 µM) | 1.88 | 1 (≈ 1.1 µM) | 1 (≈ 1.1 µM)
5 | CCOC(=O)[C@H](Cc1ccccc1)NCc1c2c(O)c3c(O)c(C)c4c(c3c1O)C(=O)[C@@](C)(O/C=C/[C@H](OC)[C@@H](C)[C@@H](OC(C)=O)[C@H](C)[C@H](O)[C@H](C)[C@@H](O)[C@@H](C)/C=C/C=C(/C)C(=O)N2)O4 | 0.063 (≈ 0.0698 µM) | 0.125 (≈ 0.138 µM) | 0.063 (≈ 0.0698 µM) | 0.063 (≈ 0.0698 µM) | 0.125 (≈ 0.138 µM) | 0.063 (≈ 0.0698 µM) | 0.125 (≈ 0.138 µM) | 0.125 (≈ 0.138 µM) | > 2 | > 2 | 50 (≈ 55.4 µM) | 2.63 | 0.125 (≈ 0.138 µM) | 0.125 (≈ 0.138 µM)
6 | CCOC(=O)[C@H](Cc1ccc(O)cc1)NCc1c2c(O)c3c(O)c(C)c4c(c3c1O)C(=O)[C@@](C)(O/C=C/[C@H](OC)[C@@H](C)[C@@H](OC(C)=O)[C@H](C)[C@H](O)[C@H](C)[C@@H](O)[C@@H](C)/C=C/C=C(/C)C(=O)N2)O4 | 0.5 (≈ 0.544 µM) | 2 (≈ 2.18 µM) | 0.5 (≈ 0.544 µM) | 0.063 (≈ 0.0686 µM) | 0.125 (≈ 0.136 µM) | 0.5 (≈ 0.544 µM) | 0.5 (≈ 0.544 µM) | 0.5 (≈ 0.544 µM) | > 2 | > 2 | 50 (≈ 54.4 µM) | 1.92 |  | 
7 | CO[C@H]1/C=C/O[C@@]2(C)Oc3c(C)c(O)c4c(O)c(c(CN[C@@H](Cc5ccccc5)C(=O)OCc5ccccc5)c(O)c4c3C2=O)NC(=O)/C(C)=C\C=C\[C@H](C)[C@H](O)[C@@H](C)[C@@H](O)[C@@H](C)[C@H](OC(C)=O)[C@@H]1C | 0.5 (≈ 0.518 µM) | 2 (≈ 2.07 µM) | 0.5 (≈ 0.518 µM) | 0.125 (≈ 0.13 µM) | 0.25 (≈ 0.259 µM) | 1 (≈ 1.04 µM) | 1 (≈ 1.04 µM) | 1 (≈ 1.04 µM) | > 2 | > 2 | 20 (≈ 20.7 µM) | 2.75 |  | 
8 | CO[C@H]1/C=C/O[C@@]2(C)Oc3c(C)c(O)c4c(O)c(c(C=O)c(O)c4c3C2=O)NC(=O)/C(C)=C\C=C\[C@H](C)[C@H](O)[C@@H](C)[C@@H](O)[C@@H](C)[C@H](OC(C)=O)[C@@H]1C | 2 (≈ 2.76 µM) | > 2 | > 2 | 1 (≈ 1.38 µM) | 1 (≈ 1.38 µM) | > 2 | > 2 | > 2 | > 2 | > 2 |  |  | > 2 | > 2
9 | CO[C@H]1/C=C/O[C@@]2(C)Oc3c(C)c(O)c4c(O)c(c(CN[C@@H](Cc5c[nH]c6ccccc56)C(=O)OCc5ccccc5)c(O)c4c3C2=O)NC(=O)/C(C)=C\C=C\[C@H](C)[C@H](O)[C@@H](C)[C@@H](O)[C@@H](C)[C@H](OC(C)=O)[C@@H]1C | 1 (≈ 0.996 µM) | 2 (≈ 1.99 µM) | 1 (≈ 0.996 µM) | 0.25 (≈ 0.249 µM) | 0.25 (≈ 0.249 µM) | 1 (≈ 0.996 µM) | 1 (≈ 0.996 µM) | 1 (≈ 0.996 µM) | > 2 | > 2 | < 10 | 2.72 |  | 
10 | CCOC(=O)[C@H](CCCNC(=N)N)NCc1c2c(O)c3c(O)c(C)c4c(c3c1O)C(=O)[C@@](C)(O/C=C/[C@H](OC)[C@@H](C)[C@@H](OC(C)=O)[C@H](C)[C@H](O)[C@H](C)[C@@H](O)[C@@H](C)/C=C/C=C(/C)C(=O)N2)O4 | 1 (≈ 1.1 µM) | > 2 | 1 (≈ 1.1 µM) | 0.25 (≈ 0.274 µM) | 0.5 (≈ 0.548 µM) | 2 (≈ 2.19 µM) |  |  |  |  | 90 (≈ 98.7 µM) | 2.22 | 2 (≈ 2.19 µM) | 2 (≈ 2.19 µM)
11 | CCOC(=O)[C@H](CCCCN)NCc1c2c(O)c3c(O)c(C)c4c(c3c1O)C(=O)[C@@](C)(O/C=C/[C@H](OC)[C@@H](C)[C@@H](OC(C)=O)[C@H](C)[C@H](O)[C@H](C)[C@@H](O)[C@@H](C)/C=C/C=C(/C)C(=O)N2)O4 | 2 (≈ 2.26 µM) | > 2 | 2 (≈ 2.26 µM) | 0.5 (≈ 0.566 µM) | 1 (≈ 1.13 µM) | > 2 |  |  |  |  | 120 (≈ 136 µM) | 2.2 | > 2 | > 2
12 | COC(=O)[C@H](Cc1c[nH]c2ccccc12)NCc1c2c(O)c3c(O)c(C)c4c(c3c1O)C(=O)[C@@](C)(O/C=C/[C@H](OC)[C@@H](C)[C@@H](OC(C)=O)[C@H](C)[C@H](O)[C@H](C)[C@@H](O)[C@@H](C)/C=C/C=C(/C)C(=O)N2)O4 | 0.031 (≈ 0.0334 µM) | 0.063 (≈ 0.0679 µM) | 0.031 (≈ 0.0334 µM) | 0.016 (≈ 0.0172 µM) | 0.016 (≈ 0.0172 µM) | 0.031 (≈ 0.0334 µM) | 0.063 (≈ 0.0679 µM) | 0.063 (≈ 0.0679 µM) | > 2 | > 2 | 60 (≈ 64.7 µM) | 2.22 |  | 
13 | COC(=O)[C@H](Cc1cnc[nH]1)NCc1c2c(O)c3c(O)c(C)c4c(c3c1O)C(=O)[C@@](C)(O/C=C/[C@H](OC)[C@@H](C)[C@@H](OC(C)=O)[C@H](C)[C@H](O)[C@H](C)[C@@H](O)[C@@H](C)/C=C/C=C(/C)C(=O)N2)O4 | 0.25 (≈ 0.284 µM) | 1 (≈ 1.14 µM) | 0.25 (≈ 0.284 µM) | 0.25 (≈ 0.284 µM) | 0.125 (≈ 0.142 µM) | 0.5 (≈ 0.569 µM) |  |  |  |  | 150 (≈ 171 µM) | 1.72 | 1 (≈ 1.14 µM) | 1 (≈ 1.14 µM)
14 | CCOC(=O)[C@H](Cc1c[nH]c2ccccc12)NCc1c2c(O)c3c(O)c(C)c4c(c3c1O)C(=O)[C@@](C)(O/C=C/[C@H](OC)[C@@H](C)[C@@H](OC(C)=O)[C@H](C)[C@H](O)[C@H](C)[C@@H](O)[C@@H](C)/C=C/C=C(/C)C(=O)N2)O4 | 0.5 (≈ 0.531 µM) | 1 (≈ 1.06 µM) | 0.25 (≈ 0.265 µM) | 0.063 (≈ 0.0669 µM) | 0.063 (≈ 0.0669 µM) | 0.5 (≈ 0.531 µM) | 0.5 (≈ 0.531 µM) | 0.5 (≈ 0.531 µM) | > 2 | > 2 | 30 (≈ 31.8 µM) | 2.48 | 0.5 (≈ 0.531 µM) | 0.5 (≈ 0.531 µM)
